{
  "source": "ChEMBL document CHEMBL4680225",
  "about": "“Design and development of ((4-methoxyphenyl)carbamoyl) (5-(5-nitrothiophen-2-yl)-1,3,4-thiadiazol-2-yl)amide analogues as Mycobacterium tuberculosis ketol-acid reductoisomerase inhibitors” (Eur J Med Chem, 2020)",
  "data": [
    {"test_system": "Mycobacterium tuberculosis", "test": "Antitubercular activity against isoniazid-resistant Mycobacterium tuberculosis clinical isolate measured after 1 week by microplate alamar blue assay", "assay_type": "functional", "settings": "168 h, time 1 weeks", "units": {"MIC": "µM"}, "values": [
      {"smiles": "O=[N+]([O-])c1ccc(-c2nnc(NC(=S)Nc3ccc(Cl)cc3)s2)s1", "MIC": 12.5},
      {"smiles": "COc1ccc(NC(=S)Nc2nnc(-c3ccc([N+](=O)[O-])o3)s2)cc1", "MIC": 7.81},
      {"smiles": "COc1ccc(NC(=S)Nc2nnc(-c3ccc([N+](=O)[O-])s3)s2)cc1", "MIC": 0.2},
      {"smiles": "O=[N+]([O-])c1ccc(-c2nnc(NC(=S)Nc3ccc(F)cc3)s2)o1", "MIC": 0.78},
      {"smiles": "CC(=O)c1ccc(S(=O)(=O)Nc2nnc(-c3ccc([N+](=O)[O-])o3)s2)cc1", "MIC": 12.5},
      {"smiles": "CC[C@@H](CO)NCCN[C@@H](CC)CO", "note": "[ETHAMBUTOL]", "MIC": 7.63},
      {"smiles": "NNC(=O)c1ccncc1", "note": "[ISONIAZID]", "MIC": 12.5},
      {"smiles": "CO[C@H]1/C=C/O[C@@]2(C)Oc3c(C)c(O)c4c(O)c(c(/C=N/N5CCN(C)CC5)c(O)c4c3C2=O)NC(=O)/C(C)=C\\C=C\\[C@H](C)[C@H](O)[C@@H](C)[C@@H](O)[C@@H](C)[C@H](OC(C)=O)[C@@H]1C", "note": "[RIFAMPIN]", "MIC": 0.5}
    ]}
  ]
}
